Laboratory results published in paper PMC9608075 (Pharmaceutics, 2022).

Columns and labels:
[1] = Initial two time-point pharmacokinetic study in mice; format: in vivo, mouse; settings: 50 mg/kg PO; for brain levels: at both time points (30 and 60 min); for concentration at 30 min: 30 min post dose
Description: For in vivo PK studies, male CD-1 mice (Harlan Laboratories, Indianapolis, IN, USA) weighing 25-30 g were used. The mice were maintained on a 12 h light-dark cycle with ad libitum access to food and water. […] Brains were dissected and immediately flash frozen (-80 °C). […] Caffeic acid was analyzed underivatized. […] Plasma and brain tissue samples were processed by matching dilutions of the calibration standards. […] Then, 2 μL of the sample was analyzed using LC/MS/MS system. […] Plasma and brain tissue samples were processed by matching the dilutions of calibration standards of the respective tissues. […] The solutions were vortexed for 15 s and then allowed to sit at room temperature for 45 min. These mixtures were vortexed again for 10 s and centrifuged at 10,000× g for 10 min to collect the supernatant. Then, 2 μL of the sample was injected into the LC/MS/MS system for analysis. Chromatographic analysis was performed using a Thermo Scientific Vanquish UPLC system consisting of an analytical pump and an autosampler coupled with a […] spectrometer. […] The mobile phase was delivered as a gradient at a flow rate of 0.400 mL/min. […] The analyte was monitored using a ThermoScientific […] triple-quadrupole mass-spectrometric detector equipped with an electrospray interface, and operated in negative ion mode. The instrument was controlled by Thermo Scientific Xcalibur (version 4.2.47) software.

in vitro = in vitro ADME; settings: mouse, brain homogenate
Description: (§1) Briefly, brain homogenates were prepared by adding 9X of 0.1 M potassium phosphate buffer to weighed tissue and homogenization using a probe sonicator. Plasma and crude brain homogenate (1 mL each) were spiked with the analyte to give a final concentration of 10 µM and then incubated at 37 °C for 1 h. At predetermined time points (0, 30, and 60 min), an aliquot from each matrix was quenched with 3X volume of acetonitrile containing the internal standard (IS; losartan: 0.5 μM) and vortex-mixed for 30 s. The final mixtures were centrifuged at 10,000× g for 10 min at 4 °C and supernatants were used for LC-MS analyses.
(§2) The samples were analyzed using a Dionex Ultimate 3000 ultra-high-performance LC system coupled with a Q Exactive Focus orbitrap mass spectrometer (Thermo Fisher Scientific Inc., Waltham MA, USA) operated with a heated electrospray ionization (HESI) ion source. […] The mass spectrometer was operated in switching ionization mode to collect both positive and negative molecular ions while being controlled by Xcalibur software 4.0.27.13 (Thermo Scientific). Analytes were quantified and the disappearance of the respective catechols was monitored in the full-scan mode (from m/z 50 to 1600) by comparing samples at the different time-points.

[2] = Metabolic stability in mouse plasma; format: in vitro ADME; settings: 37 °C, 60 min
Description: as §1, §2

human recombinant GCPII = human recombinant GCPII (Homo sapiens, UniProt Q04609); experiment: GCPII activity assay (radioactivity-based, NAA-[3H]-G); format: biochemical; settings: for IC50: human recombinant GCPII
Description: Inhibition potencies against GCPII (IC50 values) were determined using previously described methods with minor modifications. Briefly, reactions were carried out in the presence of NAA-[^3H]-G and human recombinant GCPII enzyme in Tris-HCl and CoCl2 at 37 °C for 20 min. Reactions were stopped with ice-cold sodium phosphate buffer containing 1 mM EDTA. Aliquots were then transferred to 96-well spin columns containing AG1X8 ion-exchange resin and centrifuged. NAA-[^3H]-G was bound to the resin and [^3H]-G eluted in the flow-through. Columns were washed with formate to ensure complete elution of [^3H]-G. The flow-through and the washes were collected, and aliquots were transferred and dried to completion in a solid scintillator-coated 96-well plate. The radioactivity corresponding to [^3H]-G was determined with a scintillation counter. Subsequently, IC50 curves were generated from CPM results.
The inhibitory potencies of the catechols were determined using a modified radioactivity-based assay involving human recombinant GCPII enzyme as previously reported. Based on literature reports of catecholic moieties binding to zinc metalloproteases, we tested the potency of L-DOPA (1) against GCPII activity and discovered that it is a submicromolar inhibitor. […] This prompted us to evaluate analogs of L-DOPA (Table 1) to determine the essential structural features responsible for its GCPII inhibitory activity. […] Subsequently, we tested L-DOPA analogs retaining the catechol moiety (compounds 5–10). […] Taken together, these structure–activity relationship (SAR) studies highlight the critical role played by the catechol and carboxylate groups of L-DOPA in GPCII inhibition as well as the insignificant contribution of the alpha amino group.

[3] = Metabolite identification (MET-ID) in spiked brain homogenate; format: in vitro ADME, mouse; settings: 30 min post-spike
in vivo = settings: male, CD-1, mouse
Description: All of the formulations were freshly prepared prior to the dosing. […] Brain and plasma collection were carried out as described above. […] Plasma and brain tissue samples were processed by matching the dilutions of calibration standards of the respective tissues. […] The solutions were vortexed for 15 s and then allowed to sit at room temperature for 45 min. These mixtures were vortexed again for 10 s and centrifuged at 10,000× g for 10 min to collect the supernatant. Then, 2 μL of the sample was injected into the LC/MS/MS system for analysis. Chromatographic analysis was performed using a Thermo Scientific Vanquish UPLC system consisting of an analytical pump and an autosampler coupled with a […] spectrometer. […] The mobile phase was delivered as a gradient at a flow rate of 0.400 mL/min. […] The analyte was monitored using a ThermoScientific […] triple-quadrupole mass-spectrometric detector equipped with an electrospray interface, and operated in negative ion mode. The instrument was controlled by Thermo Scientific Xcalibur (version 4.2.47) software.

GCPII = molecular target: T1, GCPII (Mus musculus, UniProt O35409); experiment: D-DOPA target engagement: ex vivo GCPII activity in mouse brain; settings: for brain GCPII activity, effect in words: 30 min
T1 construct: from tissue

[4] = male, CD-1, mouse, plasma, read-out: plasma levels

Chain of human recombinant GCPII (Q04609 whole entry): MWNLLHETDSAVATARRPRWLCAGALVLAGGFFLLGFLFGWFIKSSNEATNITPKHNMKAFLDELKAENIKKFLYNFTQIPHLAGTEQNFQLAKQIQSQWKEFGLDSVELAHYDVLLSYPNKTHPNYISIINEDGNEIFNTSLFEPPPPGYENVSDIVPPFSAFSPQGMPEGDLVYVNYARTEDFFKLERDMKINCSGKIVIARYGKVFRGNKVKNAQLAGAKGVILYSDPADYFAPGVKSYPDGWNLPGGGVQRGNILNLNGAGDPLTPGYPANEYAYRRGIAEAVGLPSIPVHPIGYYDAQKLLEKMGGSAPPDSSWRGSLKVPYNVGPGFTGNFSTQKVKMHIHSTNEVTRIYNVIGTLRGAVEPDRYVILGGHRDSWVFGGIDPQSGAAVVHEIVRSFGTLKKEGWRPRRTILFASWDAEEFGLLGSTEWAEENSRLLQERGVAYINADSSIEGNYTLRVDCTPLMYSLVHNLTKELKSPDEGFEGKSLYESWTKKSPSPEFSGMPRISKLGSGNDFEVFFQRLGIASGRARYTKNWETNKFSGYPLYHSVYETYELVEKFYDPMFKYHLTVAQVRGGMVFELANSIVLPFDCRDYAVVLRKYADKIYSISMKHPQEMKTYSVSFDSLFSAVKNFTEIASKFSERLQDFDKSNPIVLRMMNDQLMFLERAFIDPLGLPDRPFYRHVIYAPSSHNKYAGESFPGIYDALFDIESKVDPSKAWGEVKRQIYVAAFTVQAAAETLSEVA
T1 sequence (O35409 whole entry): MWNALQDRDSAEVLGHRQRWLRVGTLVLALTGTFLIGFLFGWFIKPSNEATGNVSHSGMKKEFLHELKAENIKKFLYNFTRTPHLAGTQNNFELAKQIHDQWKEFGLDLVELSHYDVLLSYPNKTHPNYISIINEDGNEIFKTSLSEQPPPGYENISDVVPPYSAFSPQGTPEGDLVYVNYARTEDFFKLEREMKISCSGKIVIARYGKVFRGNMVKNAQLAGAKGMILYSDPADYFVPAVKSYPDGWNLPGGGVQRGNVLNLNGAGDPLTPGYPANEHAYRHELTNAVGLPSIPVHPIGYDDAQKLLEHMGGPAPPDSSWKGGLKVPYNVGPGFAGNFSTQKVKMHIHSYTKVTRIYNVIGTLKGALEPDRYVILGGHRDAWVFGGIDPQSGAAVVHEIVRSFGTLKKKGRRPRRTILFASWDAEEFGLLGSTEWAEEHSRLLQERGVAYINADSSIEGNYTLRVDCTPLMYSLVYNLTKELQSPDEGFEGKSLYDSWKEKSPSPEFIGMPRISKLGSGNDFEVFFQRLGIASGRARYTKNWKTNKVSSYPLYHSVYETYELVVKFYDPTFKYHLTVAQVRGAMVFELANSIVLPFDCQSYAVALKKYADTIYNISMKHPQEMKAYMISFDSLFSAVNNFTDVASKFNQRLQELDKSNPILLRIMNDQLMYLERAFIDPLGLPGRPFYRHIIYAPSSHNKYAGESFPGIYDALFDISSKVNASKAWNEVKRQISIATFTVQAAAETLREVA

SMILES: O=C(O)/C=C/c1ccc(O)c(O)c1 [Compound 9, Caffeic Acid]
- plasma levels following oral administration ([1]; 30 and 60 min): 6 to 7 µM
- brain levels [1]: < 0.01 nmol/g
- concentration at 30 min [1, 4]: 6.47 µM
- remaining at 1 h, 10 µM (in vitro): 98%
- remaining at 1 h, 10 µM [2]: 56%
- IC50 (human recombinant GCPII): 0.3 µM

SMILES: CC(=O)N[C@@H](Cc1ccc(O)c(O)c1)C(=O)O [Compound 6]
- IC50 (human recombinant GCPII): 20 µM

SMILES: N[C@@H](Cc1ccc(O)cc1)C(=O)O [Compound 2, Tyr]
- IC50 (human recombinant GCPII): 100 µM

SMILES: N[C@H](Cc1ccc(O)c(O)c1)C(=O)O [Compound 10, D-DOPA]
- brain levels [1]: ~ 1 nmol/g
- concentration at 30 min [1, 4]: 84.3 µM
- concentration at 1 h ([1]; male, CD-1, mouse, plasma, one hour post dose, read-out: plasma levels): 21.5 µM
- remaining at 1 h, 10 µM (in vitro): 82%
- remaining at 1 h, 10 µM [2]: 100%
- Dopamine release in spiked brain homogenate [3]: not observed
- bioavailability (in vivo): 47.7%
- AUC(0-t) (in vivo; iv, 10 mg/kg): 30.5 µM·h
- clearance (in vivo; iv, 10 mg/kg, Cl): 28 mL/min/kg
- Cmax (in vivo; iv, 10 mg/kg, Cmax): 61.1 µM
- Tmax (in vivo; iv, 10 mg/kg, Tmax): 5 min
- clearance (in vivo; iv, 10 mg/kg, clearance (Cl)): 28 mL/min/kg
- half-life (in vivo; iv, 10 mg/kg, half-life (t1/2)): 21 min
- AUC(0-t) (in vivo; po, 50 mg/kg): 72.7 µM·h
- AUCbrain (in vivo; po, 50 mg/kg): 2.42 nmol/g
- Cmax (in vivo; po, 50 mg/kg): 1.74 µM
- Tmax (in vivo; po, 50 mg/kg): 15 min
- Kp (in vivo; po, 50 mg/kg, AUCBrain/Plasma ratio (brain penetration index)): 0.03
- Cmax (in vivo; po, 50 mg/kg, Cmax): 99 µM
- Tmax (in vivo; po, 50 mg/kg, Tmax): 30 min
- brain GCPII activity, effect in words (GCPII; PO 50 mg/kg + sodium benzoate IP 400 mg/kg, p < 0.001 vs untreated): significant inhibition
- brain GCPII activity, effect in words (GCPII; monotherapy PO 50 mg/kg, p < 0.01 vs untreated): significant inhibition
- inhibition at 50 mg/kg (GCPII; mouse, po): ~25%
- IC50 (human recombinant GCPII): 0.2 µM

SMILES: NC(Cc1ccc(=O)n(O)c1)C(=O)O (stereo not shown) [Compound 4]
- IC50 (human recombinant GCPII): > 100 µM

SMILES: O=C(O)CCc1ccc(O)c(O)c1 [Compound 8]
- IC50 (human recombinant GCPII): 4 µM
- decrease in inhibitory potency (human recombinant GCPII; versus L-DOPA): 6.7 fold

SMILES: NCCc1ccc(O)c(O)c1 [Compound 7, Dopamine, reference compound]
- IC50 (human recombinant GCPII): > 100 µM

SMILES: C[C@](N)(Cc1ccc(O)c(O)c1)C(=O)O [Compound 5]
- IC50 (human recombinant GCPII): > 100 µM

SMILES: N[C@@H](Cc1ccc(O)c(O)c1)C(=O)O [Compound 1, L-DOPA, reference compound]
- brain levels [1]: < 0.10 nmol/g
- concentration at 30 min [1, 4]: 3.74 µM
- remaining at 0.5 h, 10 µM (in vitro): 0%
- remaining at 1 h, 10 µM [2]: 64%
- Dopamine release in spiked brain homogenate [3]: observed
- IC50 (human recombinant GCPII): 0.6 µM
